Like-named read-outs stand apart in the source and are kept apart here.
How the values were obtained:
[1] = biological target: EGFR (L858R) (Homo sapiens, UniProt P00533, L858R); test: MSA (Mobility Shift Assay) kinase activity, EGFR-L858R; format: biochemical
Procedure: (§1) The MSA (Mobility Shift Assay) method was used to detect the effects of small molecule inhibitors on the kinase activity of EGFR wild type and its mutants (EGFR^wt, EGFR-L858R, EGFR-L858R-T790M-C797S, EGFR-L858R-C797S).
(§2) 10 μL of kinase solution at 2.5 times the final concentration was added to the compound wells and positive control Max wells; 10 μL of 1x kinase buffer was added to the negative control Min wells. The mixture was centrifuged at 1000 rpm for 30 seconds, and the reaction plate was shaken to mix the solution well and then incubated at room temperature for 10 minutes. A mixed solution of ATP and kinase substrate at 5/3 times the final concentration was prepared in 1x kinase buffer. 15 μL of a mixed solution of ATP and substrate at 5/3 times the final concentration was added to initiate the reaction. The 384-well plate was centrifuged at 1000 rpm for 30 seconds, and shaken to mix the solution well and then incubated at room temperature for the corresponding time. 30 μL of stop detection solution was added to stop the kinase reaction, and the mixture was centrifuged at 1000 rpm for 30 seconds, and then to mixed well by shaking. The conversion rate was read using Caliper EZ Reader.
(§3) wherein: Conversion %_sample is the conversion rate reading of the sample; Conversion %_min is the mean of the negative control wells, representing the conversion rate reading of the wells without enzyme activity; Conversion %_max is the mean of the positive control wells, representing the conversion rate reading of the wells without compound inhibition.
(§4) The log (inhibitor) vs. response —Variable slope of the analysis software GraphPad Prism 5 was used to fit the dose-effect curve, where the log value of the concentration was used as the X-axis and the percentage inhibition rate was used as the Y-axis, to obtain the IC50 value of each compound on the enzyme activity.
(§5) The calculation formula is Y=Bottom+(Top-Bottom)/(1+10^((Log IC50−X)*Hill Slope))

[2] = tested on: Ba/F3-FL-EGFR-del19-C797S; test: CellTiter-Glo proliferation, Ba/F3-FL-EGFR-del19-C797S; format: cell-based; conditions: proliferation, 72 hours, CellTiter-Glo, read-out: Ba/F3-FL-EGFR-del19-C797S IC50/nM
Procedure: (§6) Promega CellTiter-Glo reagent was used to detect the effects of small molecule inhibitors on the proliferation of five Ba/F3 cell lines (Ba/F3-FL-EGFR, Ba/F3-FL-EGFR-L858R, Ba/F3-FL-EGFR-L858R-T790M-C797S, Ba/F3-TEL-EGFR-L858R-C797S and Ba/F3-FL-EGFR-del19-C797S).
(§7) The cell lines were cultured in an incubator at 37° C. and 5% CO2. Cells were passaged regularly and cells in the logarithmic phase were used for plating. 95 μL of cell suspension was added to each well of the cell plate, and culture medium without cells (containing 0.1% DMSO) was added to the Min control wells. Substance addition for compound detection cell plate: 5 μL of 20× compound working solution was added to the cell culture plate as shown in the table below. 50 μL of DMSO-cell culture medium mixture was added to the Max control, with the final DMSO concentration of 0.1%. 5 μL of DMSO-cell culture medium mixture was added to the Max control. The final DMSO concentration was 0.1%.
(§8) The compounds to be tested were added as per the table below
(§9) Cell viability was detected by CellTiter-Glo luminescence assay. Data analysis:
(§10) The cell proliferation inhibition rate (Inhibition Rate) data was processed using the following formula: […]
(§11) wherein: RLUDrug represents the relative luminescence unit of the cells with the addition of drug, RLUMin represents the luminescence unit of the culture medium, and RLUMax represents the relative luminescence unit of the cells with the addition of DMSO.
(§12) The inhibition rates corresponding to different concentrations of compounds were calculated in EXCEL, and then the inhibition rate curve was plotted using GraphPad Prism software and related parameters including the maximum and minimum inhibition rates of cells and IC50 values were calculated.

[3] = biological target: EGFR (wild-type) (Homo sapiens, UniProt P00533); test: MSA (Mobility Shift Assay) kinase activity, EGFR wild type; format: biochemical; conditions: read-out: EGFR wt/ IC50/nM
Chain of EGFR (wild-type) (P00533 25-1210): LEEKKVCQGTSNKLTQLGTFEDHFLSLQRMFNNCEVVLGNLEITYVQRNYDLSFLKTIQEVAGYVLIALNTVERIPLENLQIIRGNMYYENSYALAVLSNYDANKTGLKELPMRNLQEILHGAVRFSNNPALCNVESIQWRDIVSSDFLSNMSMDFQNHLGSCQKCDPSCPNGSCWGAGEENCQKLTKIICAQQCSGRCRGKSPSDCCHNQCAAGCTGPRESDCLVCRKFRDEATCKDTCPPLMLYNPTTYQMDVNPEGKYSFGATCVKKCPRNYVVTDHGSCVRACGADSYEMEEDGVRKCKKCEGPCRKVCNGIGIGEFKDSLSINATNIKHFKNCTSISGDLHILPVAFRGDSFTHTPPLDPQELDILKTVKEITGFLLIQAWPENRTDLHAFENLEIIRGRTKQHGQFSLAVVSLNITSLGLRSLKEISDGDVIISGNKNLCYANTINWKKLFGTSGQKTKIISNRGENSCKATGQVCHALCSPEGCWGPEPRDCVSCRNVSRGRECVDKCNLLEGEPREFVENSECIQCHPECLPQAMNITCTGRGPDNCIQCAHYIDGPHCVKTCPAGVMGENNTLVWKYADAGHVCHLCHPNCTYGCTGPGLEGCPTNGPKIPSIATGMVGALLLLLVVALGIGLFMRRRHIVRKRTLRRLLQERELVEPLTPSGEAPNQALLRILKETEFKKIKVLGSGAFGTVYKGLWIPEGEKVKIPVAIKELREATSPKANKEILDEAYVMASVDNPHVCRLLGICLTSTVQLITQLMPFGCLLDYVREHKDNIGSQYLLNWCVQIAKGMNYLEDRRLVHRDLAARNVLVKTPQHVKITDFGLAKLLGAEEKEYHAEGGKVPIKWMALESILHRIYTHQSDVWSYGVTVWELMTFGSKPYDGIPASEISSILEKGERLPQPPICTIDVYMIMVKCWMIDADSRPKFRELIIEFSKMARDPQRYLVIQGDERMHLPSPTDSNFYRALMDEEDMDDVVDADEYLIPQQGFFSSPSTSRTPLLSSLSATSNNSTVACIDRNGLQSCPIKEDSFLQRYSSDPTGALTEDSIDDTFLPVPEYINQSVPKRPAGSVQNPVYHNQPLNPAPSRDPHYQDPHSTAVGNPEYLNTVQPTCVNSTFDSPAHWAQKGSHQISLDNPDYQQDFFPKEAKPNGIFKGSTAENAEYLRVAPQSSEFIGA
Procedure: as §1, §2, §3, §4, §5

[4] = biological target: Ba/F3-FL-EGFR-L858R (Homo sapiens, UniProt P00533, L858R, cells depend on it); test: CellTiter-Glo proliferation, Ba/F3-FL-EGFR-L858R; format: cell-based; conditions: 72 hours, read-out: Ba/F3-FL-EGFR-L858R IC50/nM
Procedure: as §6, §7, §8, §9, §10, §11, §12

[5] = biological target: T1, Ba/F3-FL-EGFR (Homo sapiens, UniProt P00533); test: CellTiter-Glo proliferation, Ba/F3-FL-EGFR; format: cell-based; conditions: 72 hours, read-out: Ba/F3-FL-EGFR IC50/nM
T1 construct: FL read as full length
Procedure: as §6, §7, §8, §9, §10, §11, §12

[6] = biological target: T2, Ba/F3-TEL-EGFR-L858R-C797S (Homo sapiens, UniProt P00533, C797S/L858R, cells depend on it); test: CellTiter-Glo proliferation, Ba/F3-TEL-EGFR-L858R-C797S; format: cell-based; conditions: 72 hours, read-out: Ba/F3-TEL-EGFR-L858R-C797S IC50/nM
T2 construct: fused on or other part: N-terminal TEL (ETV6) oligomerising part fused to the EGFR intracellular/kinase part; P41212 (Transcription factor ETV6)
Procedure: as §6, §7, §8, §9, §10, §11, §12

[7] = biological target: EGFR (L858R/T790M/C797S) (Homo sapiens, UniProt P00533, C797S/L858R/T790M); test: MSA (Mobility Shift Assay) kinase activity, EGFR-L858R-T790M-C797S; format: biochemical
Chain of EGFR (L858R/T790M/C797S) (P00533 25-1210 T790M/C797S/L858R): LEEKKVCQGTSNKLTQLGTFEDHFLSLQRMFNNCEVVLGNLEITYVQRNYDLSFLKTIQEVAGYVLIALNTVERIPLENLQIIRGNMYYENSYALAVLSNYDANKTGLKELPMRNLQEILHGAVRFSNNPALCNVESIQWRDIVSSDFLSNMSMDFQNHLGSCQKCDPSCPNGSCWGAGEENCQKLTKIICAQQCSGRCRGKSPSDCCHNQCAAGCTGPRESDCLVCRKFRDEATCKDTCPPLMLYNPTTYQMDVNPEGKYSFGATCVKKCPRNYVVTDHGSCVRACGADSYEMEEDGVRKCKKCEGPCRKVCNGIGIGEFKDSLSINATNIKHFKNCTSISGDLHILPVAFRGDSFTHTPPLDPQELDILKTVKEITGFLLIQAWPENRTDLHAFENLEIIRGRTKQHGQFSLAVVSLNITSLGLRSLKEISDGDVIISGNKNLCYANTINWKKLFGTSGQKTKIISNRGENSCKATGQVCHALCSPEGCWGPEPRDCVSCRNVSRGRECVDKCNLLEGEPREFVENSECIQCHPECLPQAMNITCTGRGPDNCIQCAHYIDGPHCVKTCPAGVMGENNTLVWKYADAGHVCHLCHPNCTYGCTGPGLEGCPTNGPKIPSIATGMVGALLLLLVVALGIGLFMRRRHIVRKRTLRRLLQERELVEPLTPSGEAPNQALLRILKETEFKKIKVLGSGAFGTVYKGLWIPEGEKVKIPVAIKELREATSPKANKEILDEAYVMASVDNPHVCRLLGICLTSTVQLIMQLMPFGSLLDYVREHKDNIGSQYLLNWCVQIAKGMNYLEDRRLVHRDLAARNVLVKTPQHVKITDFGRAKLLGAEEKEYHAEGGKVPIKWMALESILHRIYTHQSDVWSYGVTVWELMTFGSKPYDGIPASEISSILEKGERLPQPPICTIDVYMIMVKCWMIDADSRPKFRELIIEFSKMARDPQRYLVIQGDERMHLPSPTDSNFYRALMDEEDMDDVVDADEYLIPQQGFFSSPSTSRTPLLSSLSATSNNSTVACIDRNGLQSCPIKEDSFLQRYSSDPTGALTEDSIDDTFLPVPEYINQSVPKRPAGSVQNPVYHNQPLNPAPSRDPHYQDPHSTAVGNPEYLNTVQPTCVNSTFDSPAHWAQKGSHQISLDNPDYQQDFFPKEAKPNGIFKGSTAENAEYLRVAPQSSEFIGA
Procedure: as §1, §2, §3, §4, §5

[8] = biological target: EGFR (L858R/C797S) (Homo sapiens, UniProt P00533, C797S/L858R); test: MSA (Mobility Shift Assay) kinase activity, EGFR-L858R-C797S; format: biochemical
Procedure: as §1, §2, §3, §4, §5

[9] = biological target: Ba/F3-FL-EGFR-L858R-T790M-C797S (Homo sapiens, UniProt P00533, T790M/C797S/L858R, cells depend on it); test: CellTiter-Glo proliferation, Ba/F3-FL-EGFR-L858R-T790M-C797S; format: cell-based; conditions: 72 hours, read-out: Ba/F3-FL-EGFR-L858R-T790M-C797S IC50/nM
Chain of Ba/F3-FL-EGFR-L858R-T790M-C797S (P00533 whole entry T790M/C797S/L858R): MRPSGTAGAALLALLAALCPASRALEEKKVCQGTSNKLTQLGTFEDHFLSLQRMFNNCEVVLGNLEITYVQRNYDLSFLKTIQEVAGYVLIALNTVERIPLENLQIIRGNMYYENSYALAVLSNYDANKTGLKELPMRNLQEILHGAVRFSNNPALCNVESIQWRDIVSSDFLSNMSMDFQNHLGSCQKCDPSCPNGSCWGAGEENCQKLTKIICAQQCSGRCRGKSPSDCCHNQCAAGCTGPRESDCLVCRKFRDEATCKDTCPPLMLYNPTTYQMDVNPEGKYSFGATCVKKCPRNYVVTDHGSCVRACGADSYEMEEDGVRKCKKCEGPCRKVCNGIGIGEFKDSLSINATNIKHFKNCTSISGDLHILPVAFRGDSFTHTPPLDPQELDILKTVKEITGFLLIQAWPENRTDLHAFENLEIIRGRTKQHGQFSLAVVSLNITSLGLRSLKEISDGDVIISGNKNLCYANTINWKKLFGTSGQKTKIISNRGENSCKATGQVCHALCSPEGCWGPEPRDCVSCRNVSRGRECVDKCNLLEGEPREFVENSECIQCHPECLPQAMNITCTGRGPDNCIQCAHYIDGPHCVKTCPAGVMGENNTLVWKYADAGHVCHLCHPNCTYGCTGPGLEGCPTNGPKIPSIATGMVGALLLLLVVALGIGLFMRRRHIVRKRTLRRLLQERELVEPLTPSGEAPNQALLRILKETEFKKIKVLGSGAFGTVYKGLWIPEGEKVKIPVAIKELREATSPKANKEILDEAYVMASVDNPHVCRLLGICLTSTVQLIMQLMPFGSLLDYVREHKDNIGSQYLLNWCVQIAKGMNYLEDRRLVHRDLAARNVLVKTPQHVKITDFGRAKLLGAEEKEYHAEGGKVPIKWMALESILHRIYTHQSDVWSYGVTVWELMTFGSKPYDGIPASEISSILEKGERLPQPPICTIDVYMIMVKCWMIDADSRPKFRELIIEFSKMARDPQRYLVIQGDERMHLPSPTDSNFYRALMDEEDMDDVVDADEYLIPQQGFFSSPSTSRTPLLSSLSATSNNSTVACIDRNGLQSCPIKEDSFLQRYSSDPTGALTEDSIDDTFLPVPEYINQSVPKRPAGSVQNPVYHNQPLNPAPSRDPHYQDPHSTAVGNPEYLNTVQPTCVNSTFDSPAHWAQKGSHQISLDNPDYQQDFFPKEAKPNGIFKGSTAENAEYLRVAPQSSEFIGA
Procedure: as §6, §7, §8, §9, §10, §11, §12

Chain of EGFR (L858R) (P00533 25-1210 L858R): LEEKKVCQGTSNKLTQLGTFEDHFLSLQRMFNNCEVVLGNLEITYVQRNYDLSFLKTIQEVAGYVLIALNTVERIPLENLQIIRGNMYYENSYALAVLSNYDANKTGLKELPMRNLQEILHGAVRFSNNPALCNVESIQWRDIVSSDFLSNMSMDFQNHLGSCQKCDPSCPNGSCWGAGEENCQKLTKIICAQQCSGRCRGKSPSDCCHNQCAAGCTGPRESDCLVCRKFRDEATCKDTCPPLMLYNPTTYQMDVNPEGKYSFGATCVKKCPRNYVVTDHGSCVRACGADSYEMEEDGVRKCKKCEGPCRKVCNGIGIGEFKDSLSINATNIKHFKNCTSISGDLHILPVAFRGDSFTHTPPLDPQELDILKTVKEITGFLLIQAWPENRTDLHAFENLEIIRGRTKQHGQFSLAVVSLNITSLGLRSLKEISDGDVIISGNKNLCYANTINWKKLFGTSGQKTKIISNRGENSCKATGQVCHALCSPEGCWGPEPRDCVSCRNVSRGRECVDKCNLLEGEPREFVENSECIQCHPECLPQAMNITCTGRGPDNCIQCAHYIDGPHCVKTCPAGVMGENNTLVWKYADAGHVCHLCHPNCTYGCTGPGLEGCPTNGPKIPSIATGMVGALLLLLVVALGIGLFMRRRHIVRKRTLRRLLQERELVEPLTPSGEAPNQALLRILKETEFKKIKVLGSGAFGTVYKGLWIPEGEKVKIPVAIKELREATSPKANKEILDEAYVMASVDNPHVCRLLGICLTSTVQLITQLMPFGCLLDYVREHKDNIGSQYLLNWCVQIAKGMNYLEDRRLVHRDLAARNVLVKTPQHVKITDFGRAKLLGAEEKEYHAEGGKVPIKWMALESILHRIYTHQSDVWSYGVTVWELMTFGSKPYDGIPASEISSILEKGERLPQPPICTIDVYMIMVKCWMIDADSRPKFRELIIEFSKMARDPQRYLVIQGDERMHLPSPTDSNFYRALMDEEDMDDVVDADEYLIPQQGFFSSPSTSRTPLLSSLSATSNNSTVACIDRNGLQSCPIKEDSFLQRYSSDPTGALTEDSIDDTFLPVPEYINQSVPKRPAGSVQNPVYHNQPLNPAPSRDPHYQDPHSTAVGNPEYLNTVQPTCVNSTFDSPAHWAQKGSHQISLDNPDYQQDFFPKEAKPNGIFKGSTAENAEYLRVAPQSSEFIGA

IC50 [1] [nM] | IC50 ([2]; 72 h) [nM] | IC50 [3] [nM] | GI50 [4] [nM] | GI50 [5] [nM] | GI50 [6] [nM] | IC50 [7] [nM] | IC50 [8] [nM] | GI50 [9] [nM] | IC50 [2] [nM] | Structure (SMILES)
0.77 | 71 | 5.1 | 42 | 618 | 15 | 0.08 | 1.22 | 11 | – | CC(C)c1ccc(N2C[C@H](NS(C)(=O)=O)[C@H]2C)c2cnc(Nc3ccnc(N4CCC(O)C(F)C4)n3)cc12 (some centres unmarked) [Compound P25]
14 | – | 50.5 | 771 | 7380 | 271 | 0.21 | 22 | 554 | – | CC(C)c1ccc(N2CC(CC(N)=O)C2)c2cnc(Nc3ccnc(N4CCC(O)C(F)C4)n3)cc12 (centres unmarked) [Compound P7]
4.1 | 265 | 20.7 | 181 | 2780 | 61 | 0.18 | 7.6 | 38 | – | CC(C)c1ccc(N2CC(NS(C)(=O)=O)C2)c2cnc(Nc3ccnc(N4CCC(O)C(C)(F)C4)n3)cc12 (centres unmarked) [Compound P45]
6.2 | – | 41.8 | 208 | 3110 | 88 | 0.61 | 9.3 | 271 | 308 | CC(C)c1ccc(N2CC(NS(C)(=O)=O)C2)c2cnc(Nc3ccnc(N4CCC(O)C(C)(F)C4)n3)cc12 (centres unmarked) [Compound P46]
5.8 | – | 17.9 | 55 | 889 | 43 | 0.71 | 10.6 | 248 | – | CC(C)c1ccc(N2CC3(CC(S(C)(=O)=O)C3)C2)c2cnc(Nc3ccnc(-c4cnn(S(=O)(=O)C5CC5)c4)n3)cc12 [Compound P3]
67.8 | – | > 100 | – | – | – | 0.97 | 83.3 | – | – | CC(C)c1ccc(N2CC(CS(C)(=O)=O)C2(C)C)c2cnc(Nc3ccnc(N4CCC(O)C(F)C4)n3)cc12 (centres unmarked) [Compound P8]
73.4 | – | > 100 | – | – | – | 1.6 | > 100 | – | – | CC(C)c1ccc(N2CC(C[S+](C)[O-])C2)c2cnc(Nc3ccnc(N4CCC(O)C(F)C4)n3)cc12 (centres unmarked) [Compound P17]
31.2 | – | > 100 | – | – | – | 1 | 34.5 | – | – | CC(C)n1c(=O)cc(N2CC(CS(C)(=O)=O)C2)c2cnc(Nc3ccnc(N4CCC(O)CC4)n3)cc21 [Compound P13]
> 100 | – | > 100 | – | – | – | 3.2 | > 100 | – | – | CC(C)c1ccc(N2CC(c3ccc[nH]c3=O)C2)c2cnc(Nc3ccnc(N4CCC(O)C(F)C4)n3)cc12 (centres unmarked) [Compound P22]
2.5 | 181 | 13.4 | 86 | 1750 | 28 | 0.12 | 4.2 | 63 | – | CC(C)c1ccc(N2CC(NS(C)(=O)=O)C2)c2cnc(Nc3ccnc(N4CCC(C)(O)C(F)C4)n3)cc12 (centres unmarked) [Compound P51]

The next lines start with the molecule.

Structure (SMILES) | IC50 [1] [nM] | IC50 ([2]; 72 h) [nM] | IC50 [3] [nM] | GI50 [4] [nM] | GI50 [5] [nM] | GI50 [6] [nM] | IC50 [7] [nM] | IC50 [8] [nM] | GI50 [9] [nM] | IC50 [2] [nM]
CC(C)c1ccc(N2CC(CS(C)(=O)=O)C2)c2cnc(Nc3ccnc(-c4cnn(CC(F)(F)F)c4)n3)cc12 [Compound H11] | 5.8 | 97 | 24.3 | 40 | > 10000 | 37 | 0.44 | 5.1 | 123 | –
CCCS(=O)(=O)n1cc(-c2nccc(Nc3cc4c(C(C)C)ccc(N5CC(CS(C)(=O)=O)C5)c4cn3)n2)cn1 [Compound H6] | 1.5 | – | 5.2 | – | 559 | 40 | 0.3 | 2.2 | 90 | 48
CC(C)c1ccc(N2CC(CS(C)(=O)=O)C2)c2cnc(Nc3ccnc(-c4cnn(S(=O)(=O)C5CCOCC5)c4)n3)cc12 [Compound H10] | 8.1 | 101 | 30.3 | 94 | 1080 | 54 | 0.34 | 7.2 | 219 | –
CC(C)c1ccc(N2CC(CS(C)(=O)=O)C2)c2cnc(Nc3ccnc(N4CCC(O)C(F)C4)n3)cc12 (centres unmarked) [Control A, reference compound] | 7.1 | – | 30.2 | 176 | 2020 | 52 | 0.19 | 11 | 38 | –
CC(C)c1ccc(N2CC(CC(N)=O)C2)c2cnc(Nc3ccnc(-c4cnn(S(=O)(=O)C5CC5)c4)n3)cc12 [Compound H4] | 2.1 | – | 6.1 | 46 | 628 | 39 | 0.3 | 2.9 | 146 | –
CC(C)c1ccc(N2CC(CS(C)(=O)=O)C2)c2cnc(Nc3ccnc(-c4cn[nH]c4)n3)cc12 [Compound H3] | 5.6 | – | 11.7 | – | 854 | 188 | 0.7 | 4.7 | 462 | 216
CC(C)c1ccc(N2CC(CS(C)(=O)=O)C2)c2cnc(Nc3ccnc(-c4cnn(S(=O)(=O)C5CCC5)c4)n3)cc12 [Compound H13] | 1.8 | 23 | 11.4 | 44 | 640 | 18 | 0.91 | 2.5 | 158 | –
COc1cccc(-c2nccc(Nc3cc4c(C(C)C)ccc(N5CC(CS(C)(=O)=O)C5)c4cn3)n2)n1 [Compound H2] | > 100 | – | > 100 | – | – | – | 71.6 | > 100 | – | –
CC(C)c1ccc(N2CC(CS(C)(=O)=O)C2)c2cnc(Nc3ccnc(-c4cnn(S(=O)(=O)C5(C)CC5)c4)n3)cc12 [Compound H18] | 2.6 | 69 | 7.3 | 73 | 658 | 46 | 0.6 | 5 | 150 | –
